Here are results for two molecules from patent EP4588921A1, “FREE BASE CRYSTAL FORM OF POLYCYCLIC COMPOUND OF NITROGEN-CONTAINING HETEROCYCLE, AND PREPARATION METHOD THEREFOR” (Jiangsu Hansoh Pharmaceutical Group Co., Ltd., priority 2022, dated 2024).

Structures are written as SMILES. Where only a bound is given, the exact number is not on record here.

The target of series [1] is T1, human OX1R (Homo sapiens, UniProt O43613).
T1 construct: expressed in transfected cells; host or cells: CHO-K1
T1 sequence (O43613 1-425): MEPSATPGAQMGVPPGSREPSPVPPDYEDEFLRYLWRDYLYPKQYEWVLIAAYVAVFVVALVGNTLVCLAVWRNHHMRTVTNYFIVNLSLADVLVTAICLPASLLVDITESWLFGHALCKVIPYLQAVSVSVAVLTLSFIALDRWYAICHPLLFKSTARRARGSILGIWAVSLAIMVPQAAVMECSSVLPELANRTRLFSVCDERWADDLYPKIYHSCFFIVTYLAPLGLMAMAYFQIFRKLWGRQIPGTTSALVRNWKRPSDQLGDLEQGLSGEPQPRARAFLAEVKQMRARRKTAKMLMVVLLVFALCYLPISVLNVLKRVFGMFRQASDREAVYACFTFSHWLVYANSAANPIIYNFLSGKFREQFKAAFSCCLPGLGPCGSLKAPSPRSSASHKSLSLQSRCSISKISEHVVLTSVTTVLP
As to the kind of experiment: Calcium current (FLIPR) in cells stably expressing OX1 receptor. It is filed as cell-based. To be noted: CHO-K1/human OX1R cells; agonist OX-A at EC80; FLIPR Tetra. The protocol: (§1) Determination of the effect of the compounds of the present invention on calcium current in cells stably expressing OX1 and OX2 receptors 1. Experimental objective: The inhibitory effect of the compounds on calcium current activity in CHO-K1/human OX1R and CHO-K1/human OX2R cells was detected. 2. […] 3. […] The IC50 of the positive compounds and test compounds was determined. 4. Experimental data processing method: FLIPR Tetra was used to read and collect the fluorescence signal value (RFU). […] 5.

The nature of series [2]: in vivo. To be noted: male, SD, rat, po, 5 mg/kg. The protocol:
SD rats were used as test animals to study the pharmacokinetic behaviour of the compounds of the present invention in rat (plasma) after oral administration at a dose of 5 mg/kg.
The example compound of the present invention, made in house.
Oral administration drug preparation: 20%HP-β-CD in Water
HP-β-CD powder (20 g) was weighed and dissolved in purified water (100 mL), and the mixture was homogeneously mixed by vortex and subjected to ultrasound treatment to afford a clear solution.
The example compound was weighed and added to a 20 mL glass bottle, the solution was added and the mixture was subjected to ultrasound treatment for 10 minutes to afford a colourless clear solution with a concentration of 0.5 mg/mL.
The brain tissues were rinsed with pre-cooled PBS, wiped dry, weighed, and stored at -80°C.
• 1) Acetonitrile (160 µL) was added to plasma sample (40 µL) for precipitation, and the mixture was mixed and centrifuged at 3500 × g for 5 to 20 minutes. • 2) The treated supernatant solution was taken and subjected to LC/MS/MS to analyse the concentrations of the test compounds. LC/MS/MS analysis instrument: AB Sciex API 4000 Qtrap.
• Liquid phase conditions: Shimadzu LC-20AD pump • Chromatographic column: Agilent ZORBAX XDB-C18 (50×2.1 mm, 3.5 µm) mobile phase: liquid A: 0.1% aqueous formic acid solution, liquid B: acetonitrile • Flow rate: 0.4 mL/min • Elution time: 0-4.0 min, the eluent is as follows:
The main pharmacokinetic parameters were calculated using WinNonlin 6.1.

Series [3] has as its target T2, CYP450 1A2 (Homo sapiens, UniProt P05177).
T2 construct: Human liver microsome incubation system was used; from tissue; host or cells: human liver microsomes
T2 sequence (P05177 1-516): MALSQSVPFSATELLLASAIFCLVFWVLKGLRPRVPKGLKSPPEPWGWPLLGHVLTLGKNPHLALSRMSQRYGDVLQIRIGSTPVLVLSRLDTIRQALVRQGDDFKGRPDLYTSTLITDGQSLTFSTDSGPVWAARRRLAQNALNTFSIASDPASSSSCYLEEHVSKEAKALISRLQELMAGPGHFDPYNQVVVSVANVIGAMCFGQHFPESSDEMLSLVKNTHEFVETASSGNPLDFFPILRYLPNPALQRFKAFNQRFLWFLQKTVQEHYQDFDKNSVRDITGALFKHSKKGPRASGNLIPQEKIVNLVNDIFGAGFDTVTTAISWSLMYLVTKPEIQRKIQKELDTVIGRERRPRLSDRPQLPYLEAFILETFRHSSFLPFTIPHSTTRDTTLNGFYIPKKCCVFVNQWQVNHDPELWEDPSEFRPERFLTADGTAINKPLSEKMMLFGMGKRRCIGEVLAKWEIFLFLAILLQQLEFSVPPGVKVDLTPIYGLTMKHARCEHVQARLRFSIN
Kind of series: CYP enzyme single point inhibition test, human liver microsomes. It is filed as in vitro ADME. As to conditions: 20 min incubation. The protocol: (§2) Human liver microsome incubation system was used, and the single point method was used to quickly predict the inhibition of compounds on CYP450 enzyme subtypes.
(§3) NADPH (reduced nicotinamide adenine dinucleotide phosphate) was weighed and added to 100 mM phosphate buffer, with the final concentration being 2.5 mM.
(§4) Formulation of the reaction liquid of the test compound: The test example compound was weighed, diluted to 10 mM with DMSO, and diluted to 100 µM with 100 mM phosphate buffer.
(§5) • 1. Liver microsomes (40 µL), substrate (10 µL), and test compound (10 µL) were added to a 96-well plate and the mixture was pre-incubated for 3 min. • 2. NADPH (40 µL) was added. • 3. At 20 min, acetonitrile stop solution containing internal standard (300 µL) was added. • 4. The mixture was centrifuged and the sample was loaded.
In general terms: Liver microsomes are a subcellular fraction often used to study metabolism.

In series [4] the target is T3, CYP450 2C19 (Homo sapiens, UniProt P33261).
T3 construct: Human liver microsome incubation system was used; from tissue; host or cells: human liver microsomes
T3 sequence (P33261 whole entry): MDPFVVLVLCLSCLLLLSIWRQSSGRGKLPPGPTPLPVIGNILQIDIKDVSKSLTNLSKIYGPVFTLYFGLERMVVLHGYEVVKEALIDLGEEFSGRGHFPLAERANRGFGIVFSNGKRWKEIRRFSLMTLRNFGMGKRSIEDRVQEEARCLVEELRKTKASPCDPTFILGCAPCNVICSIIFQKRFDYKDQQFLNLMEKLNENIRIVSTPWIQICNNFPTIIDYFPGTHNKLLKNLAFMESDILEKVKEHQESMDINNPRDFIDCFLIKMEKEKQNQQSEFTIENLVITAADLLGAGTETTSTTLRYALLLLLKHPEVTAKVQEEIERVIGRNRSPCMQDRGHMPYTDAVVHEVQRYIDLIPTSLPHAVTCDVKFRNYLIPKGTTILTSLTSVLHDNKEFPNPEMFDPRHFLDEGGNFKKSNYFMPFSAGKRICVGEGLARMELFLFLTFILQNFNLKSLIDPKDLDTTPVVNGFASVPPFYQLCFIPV
The description is as above. It is filed as in vitro ADME. To be noted: 20 min incubation. The protocol:
as §2, §3, §4, §5

Series [5] has as its target T4, CYP450 2C9 (Homo sapiens, UniProt P11712).
T4 construct: Human liver microsome incubation system was used; from tissue; host or cells: human liver microsomes
The series is described as above. The format is in vitro ADME. To be noted: 20 min incubation. The protocol:
as §2, §3, §4, §5

Series [6] has as its target T5, CYP450 2D6 (Homo sapiens, UniProt P10635).
T5 construct: Human liver microsome incubation system was used; from tissue; host or cells: human liver microsomes
Described as above. As to conditions: 20 min incubation. It is filed as in vitro ADME. The protocol: as §2, §3, §4, §5

Series [7] addresses T6, human OX2R (Homo sapiens, UniProt O43614).
T6 construct: expressed in transfected cells; host or cells: CHO-K1
T6 sequence (O43614 1-444): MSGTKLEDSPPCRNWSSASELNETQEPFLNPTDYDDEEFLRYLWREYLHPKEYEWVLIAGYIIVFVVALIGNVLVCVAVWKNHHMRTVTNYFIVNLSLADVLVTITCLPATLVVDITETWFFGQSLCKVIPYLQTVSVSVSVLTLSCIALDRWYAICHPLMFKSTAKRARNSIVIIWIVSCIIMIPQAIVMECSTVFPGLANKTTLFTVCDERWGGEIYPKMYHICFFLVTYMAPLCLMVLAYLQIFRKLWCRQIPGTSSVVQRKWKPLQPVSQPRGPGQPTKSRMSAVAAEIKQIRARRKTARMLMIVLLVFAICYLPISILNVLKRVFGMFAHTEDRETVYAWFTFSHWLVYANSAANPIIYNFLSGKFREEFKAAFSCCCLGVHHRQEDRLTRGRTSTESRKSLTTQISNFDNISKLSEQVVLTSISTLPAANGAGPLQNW
Kind of series: Calcium current (FLIPR) in cells stably expressing OX2 receptor. It is filed as cell-based. As to conditions: for IC50: CHO-K1/human OX2R cells, agonist OX-B at EC80, FLIPR Tetra; for Select fold: OX1R IC50 over OX2R IC50. The protocol: as §1

T4 sequence (P11712 whole entry): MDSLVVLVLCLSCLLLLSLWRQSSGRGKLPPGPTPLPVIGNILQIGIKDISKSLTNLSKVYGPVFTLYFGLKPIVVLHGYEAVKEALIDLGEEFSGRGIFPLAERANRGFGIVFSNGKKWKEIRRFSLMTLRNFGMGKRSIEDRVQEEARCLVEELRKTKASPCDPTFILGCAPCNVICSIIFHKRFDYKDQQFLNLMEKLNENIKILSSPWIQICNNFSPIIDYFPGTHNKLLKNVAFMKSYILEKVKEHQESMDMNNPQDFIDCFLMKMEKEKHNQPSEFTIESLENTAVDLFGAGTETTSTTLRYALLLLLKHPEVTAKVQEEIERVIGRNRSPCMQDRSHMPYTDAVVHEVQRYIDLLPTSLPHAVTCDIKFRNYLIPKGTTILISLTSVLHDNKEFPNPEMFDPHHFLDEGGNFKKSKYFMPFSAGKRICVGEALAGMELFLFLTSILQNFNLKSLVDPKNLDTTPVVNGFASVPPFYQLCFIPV
T5 sequence (P10635 whole entry): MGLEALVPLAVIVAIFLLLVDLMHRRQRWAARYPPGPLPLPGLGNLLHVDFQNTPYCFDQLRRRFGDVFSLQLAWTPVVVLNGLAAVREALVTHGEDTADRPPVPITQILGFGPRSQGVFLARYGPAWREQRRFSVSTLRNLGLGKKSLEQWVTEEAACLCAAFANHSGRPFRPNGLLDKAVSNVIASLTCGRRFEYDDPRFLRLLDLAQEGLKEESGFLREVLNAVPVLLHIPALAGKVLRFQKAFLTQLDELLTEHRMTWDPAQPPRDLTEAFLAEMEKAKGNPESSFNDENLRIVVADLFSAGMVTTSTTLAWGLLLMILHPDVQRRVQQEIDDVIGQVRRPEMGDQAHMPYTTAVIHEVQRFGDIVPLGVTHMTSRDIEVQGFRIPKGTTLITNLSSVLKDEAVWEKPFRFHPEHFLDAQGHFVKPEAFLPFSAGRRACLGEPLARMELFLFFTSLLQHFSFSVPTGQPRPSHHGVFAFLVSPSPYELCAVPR

Take `CC(C)(O)c1nc(N2C[C@H]3CN(C(=O)c4c(F)cccc4-c4ncccn4)C[C@H]3C2)ncc1F` [Compound 9, ((3aR,6aS)-5-(5-fluoro-4-(2-hydroxyprop-2-yl)pyrimidin-2-yl)hexahydropyrrolo[3,4-c]pyrrol-2(1H)-yl)(2-fluoro-6-(pyrimidin-2-yl)phenyl)methanone]: the IC50 in series [1] was 1.06 µM; in series [3] it was greater than 100 µM; in series [4], 82.7 µM; in series [5], greater than 100 µM; in series [6], greater than 100 µM; in series [7], 0.0087 µM. The same molecule yielded an AUC(0-inf) in series [2] of 130 ng·h/mL. In series [2], the Cmax was found to be 124 ng/mL. Further, in series [2], the Tmax came to 36 min. Further, the Select fold in series [7] came out at 122.
Consider `Cc1nc(N2C[C@H]3CN(C(=O)c4cccc(F)c4-n4nccn4)C[C@H]3C2)nc(C(C)(C)O)c1F` [Compound 11, (3-fluoro-2-(2H-1,2,3-triazol-2-yl)phenyl)((cis)-5-(5-fluoro-4-(2-hydroxypropan-2-yl)-6-methylpyrimidin-2-yl)hexahydropyrrolo [3,4-c]pyrrol-2(1H)-yl)methanone], for which the IC50 in series [1] was 1.32 µM; in series [3], greater than 100 µM; in series [4] it was 82.7 µM; in series [5], greater than 100 µM; in series [6], greater than 100 µM; in series [7], 0.027 µM. The AUC(0-inf) in series [2] came out at 821 ng·h/mL. Further, the highest level in series [2] (Cmax) was 394 ng/mL. Further, in series [2], the Tmax was found to be 15 min. The Select fold in series [7] is 49.

The term IC50 denotes the concentration needed to halve the response being measured. What is called AUC(0-inf) is the area under the concentration-time curve extrapolated to infinity. Low readings indicate low exposure, high ones high exposure. The term Cmax denotes the maximum level reached in the sampled fluid or tissue. As a reminder, the Tmax is the time at which the peak concentration occurs.
